The values that follow come from ChEMBL document CHEMBL1201862, “PubChem BioAssay data set” (2004).

Among the test systems are 786-0; A498; ACHN; BT-549; CAKI-1; DU-145; HCC 2998; HCT-116; HOP-62; LOX IMVI; M14; MCF7; MDA-MB-231; OVCAR-3; SF-268; SK-MEL-28; SK-MEL-5; TK-10; U-251; SK-OV-3.
What all share (test): DTP human tumour cell line panel, 48 h

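Following 48 hours of exposure in 96-well plates, responses at five concentrations were used to interpolate endpoints linearly. GI50 = concentration required for 50% inhibition of growth.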 Activity calls are given as the source filed them. Rule as the data show it: active = GI50 up to about 1.1 µM and inactive = higher.

As a reminder, the GI50 is the concentration at which growth is held to half of that of the control. On to `CCC1(O)CN(CCOC)[C@H]2C[C@@H]1C(=O)c1[nH]c3ccccc3c12` (some centres not stated), for which the GI50 in the test on 786-0, in the test with A498, in the test on ACHN, with BT-549, in the test with CAKI-1 and in the test on DU-145 was > 100 µM (inactive) each time. The GI50 in the test on HCC 2998, with HCT-116, in the test on HOP-62, in the test with LOX IMVI, in the test on M14 and with MCF7 was > 100 µM (inactive) in each case. Moreover, the GI50 with MDA-MB-231, with OVCAR-3, with SF-268, in the test with SK-MEL-28, with SK-MEL-5 and in the test on TK-10 was > 100 µM (inactive) in each case. For the same molecule, the GI50 with U-251 was > 100 µM (inactive).
As to `CC(=O)Nc1ccc(S(=O)(=O)N=S(C)C)cc1`, the GI50 in the test with 786-0, in the test on A498, in the test with ACHN, with BT-549, in the test on CAKI-1 and in the test with DU-145 was > 100 µM (inactive) in each case. Further, the GI50 in the test with HCC 2998, in the test with HCT-116, in the test with HOP-62, with LOX IMVI, with M14 and in the test with MCF7 was > 100 µM (inactive) each time. The GI50 in the test on MDA-MB-231, with OVCAR-3, in the test with SF-268, with SK-MEL-28, in the test on SK-OV-3 and in the test on TK-10 was > 100 µM (inactive) throughout. Besides, the GI50 in the test with U-251 is > 100 µM (inactive).
On to `O=C(c1ccccc1)c1c(-c2ccccc2)[nH]n(-c2ccc([N+](=O)[O-])cc2)c(=O)c1=O`, for which the GI50 with 786-0 was > 100 µM (inactive); in the test on A498, > 100 µM (inactive); in the test on ACHN, 99.1 µM (inactive); in the test on BT-549, 27.6 µM (inactive); in the test with CAKI-1, 87.3 µM (inactive); with DU-145, > 100 µM (inactive). Also, the GI50 with HCC 2998 was 64.7 µM (inactive); in the test on HCT-116, 53.2 µM (inactive); in the test on HOP-62 it was > 100 µM (inactive); in the test with M14 it was > 100 µM (inactive); in the test on MCF7, 33.7 µM (inactive); in the test with MDA-MB-231, 30.1 µM (inactive). The GI50 in the test with OVCAR-3 is 56.2 µM (inactive); in the test on SF-268, 40.2 µM (inactive); in the test with SK-MEL-28 it was 21 µM (inactive); with SK-MEL-5, > 100 µM (inactive); in the test with SK-OV-3 it was 36.9 µM (inactive); in the test with TK-10, 91.8 µM (inactive). Besides, the GI50 in the test on U-251 was 5.78 µM (inactive).
For the molecule `C/C(=N\Nc1nc2ccccc2s1)c1ncccn1`, the 50% growth inhibitory concentration (GI50) is 0.0336 µM (active) in the test on 786-0; 3.13 µM (inactive) with A498; < 0.01 µM (active) in the test on ACHN; 0.346 µM (active) in the test with BT-549; < 0.01 µM (active) in the test with CAKI-1; 0.258 µM (active) with DU-145. Also, the concentration for 50% growth inhibition (GI50) with HCC 2998 is 0.953 µM (active); in the test on HCT-116, < 0.0193 µM (active); with HOP-62, 0.131 µM (active); with M14, < 0.0194 µM (active); in the test on MCF7 it was 0.0164 µM (active); in the test on MDA-MB-231 it was < 0.0179 µM (active). For the same molecule, the GI50 in the test with OVCAR-3 was < 0.0215 µM (active); in the test with SF-268, 0.0345 µM (active); with SK-MEL-28, 0.179 µM (active); in the test with SK-MEL-5, 0.03 µM (active); with SK-OV-3, 0.103 µM (active); with U-251, < 0.0196 µM (active).
Consider `CSc1c(C#N)c(N)n(-c2ccc(C)cc2)c(=O)c1C#N`, for which the GI50 with 786-0 is > 100 µM (inactive); in the test with A498, 50.8 µM (inactive); in the test with BT-549, > 100 µM (inactive); in the test on CAKI-1, > 100 µM (inactive); in the test with DU-145 it was > 100 µM (inactive); in the test on HCC 2998 it was > 100 µM (inactive). The GI50 in the test on HCT-116 is > 100 µM (inactive); with LOX IMVI, 88.9 µM (inactive); with M14 it was > 100 µM (inactive); in the test on MCF7, > 100 µM (inactive); in the test with MDA-MB-231, > 100 µM (inactive); with OVCAR-3 it was > 100 µM (inactive). Further, the GI50 with SF-268, with SK-MEL-28, in the test with SK-MEL-5, in the test on SK-OV-3, in the test on TK-10 and in the test with U-251 was > 100 µM (inactive) throughout.
For the molecule `COc1ccc(CNc2nc3cc(C(F)(F)F)ccc3nc2C(=O)O)cc1`, the GI50 in the test with 786-0 was 23.1 µM (inactive); in the test on A498 it was 21.5 µM (inactive); in the test on ACHN it was 29.4 µM (inactive); with BT-549, 23.3 µM (inactive); with CAKI-1 it was 35.8 µM (inactive); with DU-145 it was 26.7 µM (inactive). The GI50 is 31.6 µM (inactive) in the test on HCC 2998; 19.2 µM (inactive) in the test on HCT-116; 21.4 µM (inactive) in the test with HOP-62; 19.4 µM (inactive) in the test on LOX IMVI; 22.4 µM (inactive) in the test on M14; 25 µM (inactive) in the test on MCF7. The GI50 was 26.9 µM (inactive) with MDA-MB-231; 15.3 µM (inactive) with OVCAR-3; 37.3 µM (inactive) with SK-MEL-28; 12.3 µM (inactive) in the test with SK-MEL-5; 40.4 µM (inactive) in the test with SK-OV-3; 28.6 µM (inactive) with U-251.
For `CC(=O)C(=CNc1c(C)n(C)n(-c2ccccc2)c1=O)C(C)=O`, the GI50 in the test on 786-0, in the test on A498, with ACHN, in the test on BT-549, with CAKI-1 and with DU-145 was > 100 µM (inactive) throughout. Also, the GI50 with HCC 2998, with HCT-116, with LOX IMVI, in the test on M14, with MCF7 and in the test with MDA-MB-231 was > 100 µM (inactive) in each case. For the same molecule, the GI50 in the test with OVCAR-3, with SK-MEL-5, in the test on SK-OV-3, in the test on TK-10 and in the test on U-251 was > 100 µM (inactive) throughout.
Regarding `CC(C)C1=CC2=C(C(=O)C1=O)C13CCCC(C)(C)C1CC2OC3=O` (configuration not stated), the GI50 in the test with 786-0 is 17.9 µM (inactive); in the test with A498, 27.2 µM (inactive); in the test on ACHN it was 19.1 µM (inactive); in the test on BT-549 it was 16.8 µM (inactive); in the test on CAKI-1 it was 17.9 µM (inactive); in the test with DU-145, 18.8 µM (inactive). In addition, the GI50 is 21.3 µM (inactive) with HCC 2998; 18.3 µM (inactive) in the test with HCT-116; 20.1 µM (inactive) in the test on LOX IMVI; 24 µM (inactive) in the test on M14; 22.3 µM (inactive) in the test on MCF7; 21.9 µM (inactive) with MDA-MB-231. For the same molecule, the GI50 was 16.7 µM (inactive) with OVCAR-3; 22 µM (inactive) in the test with SF-268; 14.1 µM (inactive) in the test on SK-MEL-28; 25.2 µM (inactive) in the test on SK-MEL-5; 59.3 µM (inactive) in the test with SK-OV-3; 14.8 µM (inactive) with TK-10. In addition, the GI50 with U-251 is 23 µM (inactive).
On to `Oc1ccc2ccccc2c1OCc1nnc(CCCCCCCCc2nnc(COc3c(O)ccc4ccccc34)o2)o1`, for which the GI50 in the test with 786-0 was 83 µM (inactive); in the test on A498, > 100 µM (inactive); with ACHN, > 100 µM (inactive); in the test on BT-549 it was > 100 µM (inactive); in the test with CAKI-1, 67 µM (inactive); with DU-145, > 100 µM (inactive). The GI50 with HCC 2998 was > 100 µM (inactive); with HCT-116 it was 20.7 µM (inactive); in the test on M14, > 100 µM (inactive); with MCF7, 59.2 µM (inactive); in the test on MDA-MB-231, 34.8 µM (inactive); in the test on SF-268, 99.3 µM (inactive). The GI50 in the test with SK-MEL-28 is > 100 µM (inactive); in the test with SK-MEL-5 it was > 100 µM (inactive); in the test on SK-OV-3, > 100 µM (inactive); with TK-10, > 100 µM (inactive); in the test on U-251, 35.7 µM (inactive).
`N#CC(C#N)=C1C(C#N)=C(N)NC12OCCO2`: the GI50 with 786-0, in the test with A498, in the test on ACHN, in the test with BT-549, with CAKI-1 and with DU-145 was > 100 µM (inactive) throughout. Also, the GI50 with HCC 2998, in the test with HCT-116, with HOP-62, with LOX IMVI, in the test on M14 and in the test with MCF7 was > 100 µM (inactive) throughout. The GI50 with MDA-MB-231, in the test with SF-268, with SK-MEL-28, in the test on SK-MEL-5, with SK-OV-3 and in the test on TK-10 was > 100 µM (inactive) each time. Moreover, the GI50 in the test on U-251 is > 100 µM (inactive).
Regarding `CC(C)N(C(=O)C12C3(C(=O)OC(C)(C)C)C4C5(C#N)C3C1(C(=O)OC(C)(C)C)C5C42C(=O)OC(C)(C)C)C(C)C` (configuration not stated), the GI50 with 786-0 was 34.6 µM (inactive); with A498, > 100 µM (inactive); with ACHN, > 100 µM (inactive); in the test with BT-549, > 100 µM (inactive); in the test on CAKI-1, 37.3 µM (inactive); in the test with DU-145, > 100 µM (inactive). The GI50 in the test on HCC 2998 is 97.9 µM (inactive); in the test on HCT-116, 19.8 µM (inactive); with HOP-62, > 100 µM (inactive); in the test with LOX IMVI, 14.4 µM (inactive); in the test on M14 it was 59.6 µM (inactive); in the test with MCF7, 14.4 µM (inactive). Moreover, the GI50 was 23 µM (inactive) in the test on MDA-MB-231; 47.8 µM (inactive) with OVCAR-3; > 100 µM (inactive) in the test with SF-268; 29.4 µM (inactive) with SK-MEL-28; 60.1 µM (inactive) with SK-MEL-5; > 100 µM (inactive) in the test with TK-10. The GI50 in the test with U-251 was 83.9 µM (inactive).
